Assay results as given in patent publication US20100305068A1, “COMPOUNDS AND METHODS FOR MODULATING PROTEIN TRAFFICKING” (priority 2006, published 2010).

System: pdr5 ypt1^ts cells
Test: microbe, parasite or virus in culture
Assay type: cell-based, yeast
Conditions: 37° C.; for optical density, 3.13 uM / optical density, 12.5 uM / optical density, 50 uM: Table 3, background (0 uM) 0.077; for optical density, 3.13 uM: 3.13 uM compound; for optical density, 12.5 uM: 12.5 uM compound; for optical density, 50 uM: 50 uM compound; for minimal effective concentration: Saccharomyces cerevisiae, lowest concentration tested giving growth above the 0 μM background, read-out: ypt1-ts MRC (minimal rescue concentration); for minimal effective concentration / optical density, ypt1-ts, 0.39 / optical density, ypt1-ts, 0.78 / optical density, ypt1-ts, 1.56 / optical density, ypt1-ts, 3.13 / optical density, ypt1-ts, 6.25 / optical density, ypt1-ts, 12.5 / optical density, ypt1-ts, 25: Table 2; for optical density, ypt1-ts, 0.39: 0.39 μM compound; for optical density, ypt1-ts, 0.39 / optical density, ypt1-ts, 0.78 / optical density, ypt1-ts, 1.56 / optical density, ypt1-ts, 3.13 / optical density, ypt1-ts, 6.25 / optical density, ypt1-ts, 12.5 / optical density, ypt1-ts, 25: background (0 μM) 0.058; for optical density, ypt1-ts, 0.78: 0.78 μM compound; for optical density, ypt1-ts, 1.56: 1.56 μM compound; for optical density, ypt1-ts, 3.13: 3.13 μM compound; for optical density, ypt1-ts, 6.25: 6.25 μM compound; for optical density, ypt1-ts, 12.5: 12.5 μM compound; for optical density, ypt1-ts, 25: 25 μM compound
Description: The activity of the compounds as modulators of protein trafficking may be measured in the assays described herein that evaluate the ability of a compound to rescue an impairment in protein trafficking. For example, the yeast mutant cell line ypt1^ts can be used to identify compounds that rescue cells from the lethal phenotype of a mutant YPT1 allele (see, e.g., Examples and Schmitt et al. (1988) Cell 53:635-47). The activity may be measured, for example, in a whole yeast cell assay using 384-well screening protocol and an optical density measurement.
The yeast mutant cell line ypt1^ts suppresses, in a temperature dependent fashion, the dominant-lethal phenotype of a mutant YPT1 allele (Schmitt et al. (1988) Cell 53:635-47). ypt1^ts cells grow normally at temperatures up to 30° C., but are growth arrested at 37° C. (Id.).
A library of compounds (“The Spectrum Collection”) obtained from Microsource Discovery Systems, Inc. (Gaylordsville, Conn.) was screened to assess the ability of individual compounds to restore growth of ypt1^ts cells. Screening was carried out using ypt1^ts cells containing a mutation in the pdr5 gene (resulting in inactivation of a membrane efflux pump). The effect of the compounds was measured in pdr5 ypt1^ts cells cultured at 37° C.

| SMILES | optical density, 3.13 uM | optical density, 12.5 uM | optical density, 50 uM | minimal effective concentration [µM] | optical density, ypt1-ts, 0.39 | optical density, ypt1-ts, 0.78 | optical density, ypt1-ts, 1.56 | optical density, ypt1-ts, 3.13 | optical density, ypt1-ts, 6.25 | optical density, ypt1-ts, 12.5 | optical density, ypt1-ts, 25 |
| --- | --- | --- | --- | --- | --- | --- | --- | --- | --- | --- | --- |
| CC(C)c1ccc2c(c1)CCC1C(C)(C(N)=O)CCCC21C (centres unmarked) [DEHYDRO- ABIETAMIDE] | 0.272 | 0.419 | 0.041 |  |  |  |  |  |  |  |  |
| C=CCCCCCCCCCCC/C=C/C(O)COC(C)=O (centres unmarked) [DEHYDRO- AVOCATIN - 1-ACETATE] | 0.116 | 0.329 | 0.365 |  |  |  |  |  |  |  |  |
| COc1c2occc2cc2c(=O)c3c(oc12)COc1cc2c(cc1-3)OCO2 [DEHYDRO- PACHYRRHIZONE] |  |  |  | 12.5 | 0.1 | 0.072 | 0.088 | 0.11 | 0.124 | 0.149 | 0.211 |
| CC(=O)O[C@@H]1CC2C(C)(C)CCC[C@]2(C)C2CC[C@]3(C)C(=CC(=O)O[C@H]3c3ccoc3)[C@@]21C (some centres unmarked) [DEOXO- DEOXY- DIHYDRO- GEDUNIN] | 0.245 | 0.479 | 0.452 |  |  |  |  |  |  |  |  |
| CC1(C)C2CC(=O)O[C@@]3(C)C4=CC(=O)O[C@@H](c5ccoc5)[C@]4(C)CCC3[C@@]2(C)C=C[C@H]1O (some centres unmarked) [DEOXY- ANDIROBIN LACTONE] | 0.723 | 0.678 | 0.642 |  |  |  |  |  |  |  |  |
| CC(CCC(=O)O)[C@H]1CCC2C3CC[C@H]4C[C@H](O)CC[C@]4(C)C3C[C@H](O)[C@@]21C (some centres unmarked) [DEOXY- CHOLIC ACID, reference compound] | 0.233 | 0.481 | 0.133 |  |  |  |  |  |  |  |  |
| CC(=O)O[C@@H]1CC2C(C)(C)C(=O)C=C[C@]2(C)C2CC[C@]3(C)C(=CC(=O)O[C@H]3c3ccoc3)[C@@]21C (some centres unmarked) [DEOXY- GEDUNIN] | 0.092 | 0.141 | 0.328 |  |  |  |  |  |  |  |  |
| COc1ccc2c(c1)OCC(Cc1ccc(OC)c(OC(C)=O)c1)C2=O (centres unmarked) [DEOXY- SAPPANONE B 7,3′-DI- METHYL ETHER ACETATE] | 0.137 | 0.17 | 0.374 |  |  |  |  |  |  |  |  |
| COc1ccc2c(c1)OCC(Cc1ccc(OC)c(OC)c1)C2=O (centres unmarked) [DEOXY- SAPPANONE B TRIMETHYL ETHER] | 0.107 | 0.203 | 0.514 |  |  |  |  |  |  |  |  |
| CC1(C)C2CC(=O)O[C@]3(C)C4=CC(=O)O[C@@H](c5ccoc5)[C@]4(C)CCC3[C@@]2(C)C=C[C@H]1O (some centres unmarked) [DEOXYANDIROBIN- LACTONE] |  |  |  | 3.13 | 0.107 | 0.082 | 0.089 | 0.137 | 0.249 | 0.524 | 0.613 |
| O=C([O-])Cc1ccccc1Nc1c(Cl)cccc1Cl.[Na+] [DICLOFENAC SODIUM, reference compound] |  |  |  | 12.5 | 0.085 | 0.072 | 0.077 | 0.089 | 0.092 | 0.126 | 0.242 |
| C/C=C(/C(=C/C)c1ccc(O)cc1)c1ccc(O)cc1 [DIENESTROL, reference compound] | 0.142 | 0.309 | 0.044 |  |  |  |  |  |  |  |  |
| CC/C(=C(/CC)c1ccc(O)cc1)c1ccc(O)cc1 [DIETHYLSTILBESTROL, reference compound] |  |  |  | 12.5 | 0.089 | 0.076 | 0.091 | 0.108 | 0.103 | 0.163 | 0.162 |
| CC1(C)C(=O)CC[C@@]2(C)C1C[C@@H](O)[C@@]1(C)C3=CC(=O)O[C@@H](c4ccoc4)[C@]3(C)CCC21 (some centres unmarked) [DIHYDRO- 7- […]- OXYGEDUNIN] | 0.197 | 0.568 | 0.328 |  |  |  |  |  |  |  |  |
